Source: patent US20210330611A1, “THERAPY FOR NEUROLOGICAL DISEASES/DISORDERS” (priority 2020, published 2021)
Counter-ions that a name gives are not always drawn. Like-named read-outs stand apart in the source and are kept apart here.

How the values were obtained:
[1] = tested on: fibrin-induced microglia activation; assay: Image-based assay of fibrin-induced microglia activation (HTS and dose response); assay type: cell-based, rat; conditions: primary microglia HTS, fibrin stimulation; for inhibition at 10 µM: Rattus norvegicus, Microglia, read-out: Fibrin % inhibition
primary rat microglia [2] = tested on: primary rat microglia
[3] = tested on: fibrin- and LPS-induced microglia activation; assay: cells; assay type: cell-based, rat
primary rat microglia [4] = assay: Cell toxicity (dead cells, size <150 μm2) in coated fibrin (cFib) assay; conditions: primary microglia HTS;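 note: share of dead cells sized under 150 µm2 at 10 µM in fibrin-stimulated microglia HTS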
[5] = tested on: LPS-induced microglia activation; assay: Image-based assay of LPS-induced microglia activation (HTS and dose response); assay type: cell-based, rat; conditions: for inhibition at 10 µM: Rattus norvegicus, Microglia, read-out: LPS % inhibition
[6] = quadrant by fibrin and LPS inhibition, HTS at 10 μM
[7] = fibrin assay, dead cells (size <150 μm2)
[8] = primary microglia HTS, LPS stimulation, compounds at 10 μM
[9] = cell size >800 μm2 as marker of activation
[10] = classification by fibrin and LPS inhibition in HTS
[11] = fibrin stimulation, cell size <150 μm2 as marker of toxicity
[12] = classification by fibrin and LPS inhibition, HTS at 10 μM
[13] = fibrin assay, dead cells (size <150 μm2), compounds at 10 μM

Compound	Quadrant (FIG. 5b) [3, 6]	Fibrin % cell toxicity (primary rat microglia [4]; [7]) [%]	inhibition at 10 µM ([1]; compounds at 10 μM) [%]	LPS % cell toxicity (primary rat microglia [2]; rat) [%]	inhibition at 10 µM [5, 8] [%]	Quadrant (FIG. 5b) [3, 10]	Fibrin % cell toxicity (primary rat microglia [4]; [11]) [%]	inhibition at 10 µM ([5]; 48 h) [%]	Quadrant (FIG. 5b) [3, 12]	Fibrin % cell toxicity (primary rat microglia [4]; [13]) [%]	further results
CCCCC(CC)COc1ccc(-c2nc(-c3ccc(OC)cc3)nc(-c3ccc(OCC(CC)CCCC)cc3O)n2)c(O)c1 (stereo not drawn) [Bemotrizinol]	Q4	1									Fibrin % inhibition ([1]; compounds at 10 μM): −23%; LPS % cell toxicity (primary rat microglia [2]): 0%; LPS % inhibition [5, 8]: 16%
O=c1cc[nH]c(=S)[nH]1 [2-thiouracil]	Q4	1	-15	0	7						
O=C1c2ccccc2C(=O)C1c1ccccc1 [Phenindione]				0		Q4	1	0			inhibition at 10 µM [1, 9]: -10%
CCn1cc(C(=O)O)c(=O)c2cnc(N3CCCC3)nc21 [Piromidic Acid]				0		Q4	1	7			inhibition at 10 µM [1, 9]: -30%
CC(=O)c1ccc2c(c1)N(CCCN(C)C)c1ccccc1S2 [Acepromazine]	Q4	1	9	1	31						
C=CC[C@]1(O)CC[C@H]2[C@@H]3CCC4=CC(=O)CCC4=C3C=C[C@@]21C [Altrenogest]	Q4	1	6	0	15						
N=C(N)N1CCc2ccccc2C1 [Debrisoquin]			8	0	17				Q4	1	
CCCCC(CC)COC(=O)CC(C(=O)OCC(CC)CCCC)S(=O)(=O)[O-].[Na+] (stereo not drawn) [Docusate Sodium]									Q4	0	Fibrin % inhibition ([1]; compounds at 10 μM): −39%; LPS % cell toxicity (primary rat microglia [2]): 0%; LPS % inhibition [5, 8]: −4%
O=C(N/N=C/c1ccc([N+](=O)[O-])o1)c1ccc(O)cc1 [Nifuroxazide]	Q2	6	112	14	120						
CN[C@@H]1[C@H](O[C@H]2[C@H](O[C@H]3[C@H](O)[C@@H](O)[C@H](NC(=N)N)[C@@H](O)[C@@H]3NC(=N)N)O[C@@H](C)[C@]2(O)CO)O[C@@H](CO)[C@H](O)[C@H]1O [Dihydrostreptomycin Sulfate]			-7	0	12				Q4	1	
CN1C(=O)CC(c2ccccc2)C1=O (stereo not drawn) [Phensuximide]				0		Q4	1	4			inhibition at 10 µM [1, 9]: -7%
COc1ccc2c(c1)c(CC(=O)OCC(=O)O)c(C)n2C(=O)c1ccc(Cl)cc1 [Acemetacin]	Q4	1	-16	0	17						
CC(=O)Nc1ccc(OC(C)=O)cc1 [Diacetamate]			-25	0	21				Q4	1	
C[C@]12CC[C@@H]3c4ccc(OS(=O)(=O)O)cc4CC[C@H]3[C@@H]1CCC2=O [Estropipate]			10	0	10				Q4	1	
CC(C)NC(=N)NC(=N)Nc1ccc(Cl)cc1 [Proguanil; Chlorguanide Hydrochloride]						Q4	0				Fibrin % inhibition [1, 9]: −7%; LPS % cell toxicity (primary rat microglia [2]): 1%; LPS % inhibition [5]: 20%
c1ccc(CN(CC2=NCCN2)c2ccccc2)cc1 [Antazoline]	Q4	1	-2	1	17						
CC(=O)NCCCCCC(=O)O [Acexamic Acid]	Q4	1	-25	0	13						
N[C@@H]1CON=C1O [Cycloserine]			-4	0	19				Q4	0	

Compound	Quadrant (FIG. 5b) [3, 6]	Fibrin % cell toxicity (primary rat microglia [4]; [7]) [%]	inhibition at 10 µM ([1]; compounds at 10 μM) [%]	LPS % cell toxicity (primary rat microglia [2]; rat) [%]	inhibition at 10 µM [5, 8] [%]	Quadrant (FIG. 5b) [3, 10]	Fibrin % cell toxicity (primary rat microglia [4]; [11]) [%]	inhibition at 10 µM ([5]; 48 h) [%]	Quadrant (FIG. 5b) [3, 12]	Fibrin % cell toxicity (primary rat microglia [4]; [13]) [%]	further results
CC(Oc1ccccc1)C(=O)N[C@@H]1C(=O)N2[C@@H]1SC(C)(C)[C@@H]2C(=O)O (stereo partly drawn) [Phenethicillin Potassium]				0		Q4	0	3			inhibition at 10 µM [1, 9]: -2%
C=C[C@H]1CN2CC[C@H]1C[C@H]2[C@H](OC(=O)OCC)c1ccnc2ccc(OC)cc12 [Quinine Ethyl Carbonate]				0		Q4	0	-11			inhibition at 10 µM [1, 9]: -21%
CCC1(C2=NCCN2)Cc2ccccc2O1 (stereo not drawn) [Efaroxan, Efaroxan Hydrochloride]									Q4	1	Fibrin % inhibition ([1]; compounds at 10 μM): 1%; LPS % cell toxicity (primary rat microglia [2]): 0%; LPS % inhibition [5, 8]: 5%
C[C@@H]1O[C@@H](OC[C@H]2O[C@@H](Oc3c(-c4ccc(O)c(O)c4)oc4cc(O)cc(O)c4c3=O)[C@H](O)[C@@H](O)[C@@H]2O)[C@H](O)[C@H](O)[C@H]1O [Rutin]				0		Q4	1	18			inhibition at 10 µM [1, 9]: 1%
CCCCCCCCCCOc1cc2c(O)c(C(=O)OCC)cnc2cc1OCC [Decoquinate]			7	1	20				Q4	1	
CCN(CCCc1ccccc1)CCCc1ccccc1 [Alverine]	Q4	0	-17	0	6						
O=C(O)CCCO [Sodium Oxybate]				0		Q4	1	34			inhibition at 10 µM [1, 9]: -5%
CC1=NN(c2ccccc2)C(=O)C1	Q4	1									Fibrin % inhibition ([1]; compounds at 10 μM): −15%; LPS % cell toxicity (primary rat microglia [2]): 0%; LPS % inhibition [5, 8]: 15%
CCCNC(C)C(=O)Nc1ccccc1C (stereo not drawn) [Prilocaine]				0		Q4	0	12			inhibition at 10 µM [1, 9]: -3%
C[C@]12CC[C@H]3C(=CCc4cc(O)ccc43)[C@@H]1CCC2=O [Equilin]			1	0	15				Q4	0	
Cc1nc(-c2ccc(OCC(C)C)c(C#N)c2)sc1C(=O)O [Febuxostat]			3	0	10				Q4	1	
CC(=O)Oc1cccc(O)c1 [Resorcinol Monoacetate]				1		Q4	1	26			inhibition at 10 µM [1, 9]: 12%
C[C@@H](O)CN(CCN(C[C@@H](C)O)C[C@@H](C)O)C[C@@H](C)O [Editol]									Q4	1	Fibrin % inhibition ([1]; compounds at 10 μM): 24%; LPS % cell toxicity (primary rat microglia [2]): 0%; LPS % inhibition [5, 8]: 3%
Cc1ccc(-c2ncc(Cl)cc2-c2ccc(S(C)(=O)=O)cc2)cn1 [Etoricoxib]			15	0	-4				Q4	1	
CCC[C@H](N[C@@H](C)C(=O)N1[C@H](C(=O)O)C[C@@H]2CCCC[C@@H]21)C(=O)OCC [Perindopril]				0		Q4	0	18			inhibition at 10 µM [1, 9]: -27%
CC(=O)Nc1c(I)cc(I)c(C(=O)O)c1I [Acetrizoic acid]	Q4	1	14	0	9						
CC[C@H](C)C(=O)O[C@H]1C[C@H](O)C=C2C=C[C@H](C)[C@H](CC[C@@H](O)C[C@@H](O)CC(=O)O)[C@H]21 [Pravastatin]				0		Q4	1	10			Fibrin % inhibition [1, 9]: 10%
C=CC(N)CCC(=O)O (racemic) [(±)-gamma-vinyl Gaba, Vigabatrin]	Q4	1									Fibrin % inhibition ([1]; compounds at 10 μM): 8%; LPS % cell toxicity (primary rat microglia [2]): 0%; LPS % inhibition [5, 8]: 12%
